In PubChem BioAssay (NCI):
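The compound was tested at five concentrations on cells cultured in 96-well plates, with a 48-hour exposure period. The concentration for 50% growth inhibition is given as GI50. At the TGI there is no net growth.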

Assays:
Experiment in all cases: growth of human tumour cells (NCI), 48 h
786-0 renal = test system: 786-0 renal
A549 NSCLC = test system: A549 NSCLC
ACHN renal = test system: ACHN renal
CAKI-1 renal = test system: CAKI-1 renal
CCRF-CEM leukemia = test system: CCRF-CEM leukemia
EKVX NSCLC = test system: EKVX NSCLC
HCC-2998 colon = test system: HCC-2998 colon
HOP-62 NSCLC = test system: HOP-62 NSCLC
HOP-92 NSCLC = test system: HOP-92 NSCLC
HS 578T breast = test system: HS 578T breast
K-562 leukemia = test system: K-562 leukemia
LOX IMVI melanoma = test system: LOX IMVI melanoma
MCF7 breast = test system: MCF7 breast
MDA-MB-231 breast = test system: MDA-MB-231 breast
MDA-MB-435 = test system: MDA-MB-435
NCI-H226 lung = test system: NCI-H226 lung
NCI-H23 lung = test system: NCI-H23 lung
NCI-H522 lung = test system: NCI-H522 lung
NCI/ADR-RES ovarian = test system: NCI/ADR-RES ovarian
OVCAR-3 ovarian = test system: OVCAR-3 ovarian
OVCAR-4 ovarian = test system: OVCAR-4 ovarian
OVCAR-5 ovarian = test system: OVCAR-5 ovarian
PC-3 prostate = test system: PC-3 prostate
RPMI-8226 leukemia = test system: RPMI-8226 leukemia
SF-295 CNS = test system: SF-295 CNS
SF-539 CNS = test system: SF-539 CNS
SK-MEL-2 melanoma = test system: SK-MEL-2 melanoma
SNB-19 CNS = test system: SNB-19 CNS
SW-620 colon = test system: SW-620 colon
T-47D breast = test system: T-47D breast
TK-10 renal = test system: TK-10 renal
UACC-257 melanoma = test system: UACC-257 melanoma
UO-31 renal = test system: UO-31 renal
COLO 205 colon = test system: COLO 205 colon
DU-145 prostate = test system: DU-145 prostate
HCT-116 colon = test system: HCT-116 colon
MALME-3M melanoma = test system: MALME-3M melanoma
MOLT-4 leukemia = test system: MOLT-4 leukemia
NCI-H460 lung = test system: NCI-H460 lung
SF-268 CNS = test system: SF-268 CNS
SK-MEL-5 melanoma = test system: SK-MEL-5 melanoma
SK-OV-3 ovarian = test system: SK-OV-3 ovarian
SN12C renal = test system: SN12C renal
SNB-75 CNS = test system: SNB-75 CNS
U251 CNS = test system: U251 CNS
UACC-62 melanoma = test system: UACC-62 melanoma

Work on `COc1cccc(C2CC(=O)c3cc(N4CCCC4)ccc3N2)c1` (stereo unspecified) yielded a TGI (786-0 renal) of over 100000 nM, a TGI (A549 NSCLC) of over 100000 nM and a TGI (ACHN renal) of 34800 nM. The TGI (CAKI-1 renal) was over 100000 nM, the TGI (CCRF-CEM leukemia) was over 100000 nM and the TGI (EKVX NSCLC) was over 100000 nM. It also gave a GI50 (HCC-2998 colon) of 14.6 nM, a TGI (HCC-2998 colon) of 389 nM and a TGI (HOP-62 NSCLC) of over 100000 nM. It also gave a GI50 (HOP-92 NSCLC) of over 100000 nM, a TGI (HOP-92 NSCLC) of over 100000 nM and a TGI (HS 578T breast) of over 100000 nM. It also gave a TGI (K-562 leukemia) of over 100000 nM, a TGI (LOX IMVI melanoma) of over 100000 nM and a GI50 (MCF7 breast) of 73.9 nM. It also gave a TGI (MCF7 breast) of over 100000 nM, a GI50 (MDA-MB-231 breast) of 4660 nM and a TGI (MDA-MB-231 breast) of over 100000 nM. It also gave a TGI (MDA-MB-435) of 1490 nM, a TGI (NCI-H226 lung) of 36300 nM and a TGI (NCI-H23 lung) of 163 nM. It also gave a TGI (NCI-H522 lung) of 62.4 nM, a TGI (NCI/ADR-RES ovarian) of 49.1 nM and a TGI (OVCAR-3 ovarian) of over 100000 nM. For the same compound, the TGI (OVCAR-4 ovarian) was over 100000 nM, the GI50 (OVCAR-5 ovarian) was over 100000 nM and the TGI (OVCAR-5 ovarian) was over 100000 nM. It also gave a TGI (PC-3 prostate) of over 100000 nM, a TGI (RPMI-8226 leukemia) of over 100000 nM and a TGI (SF-295 CNS) of over 100000 nM. The TGI (SF-539 CNS) was over 100000 nM, the GI50 (SK-MEL-2 melanoma) was 64500 nM and the TGI (SK-MEL-2 melanoma) was over 100000 nM. It also gave a TGI (SNB-19 CNS) of over 100000 nM, a TGI (SW-620 colon) of over 100000 nM and a TGI (T-47D breast) of over 100000 nM. It also gave a GI50 (TK-10 renal) of 45500 nM, a TGI (TK-10 renal) of over 100000 nM and a TGI (UACC-257 melanoma) of over 100000 nM. The TGI (UO-31 renal) was 65800 nM.
In the case of `Cc1ccc2c(c1)C(=O)C(c1c(-c3[nH]c(=O)c4ccc(C)cc4c3O)c(O)c3ccccc3c1O)=NC2=O`, the GI50 (A549 NSCLC) is reported as 2100 nM, the TGI (A549 NSCLC) is reported as 4260 nM and the GI50 (ACHN renal) is reported as 1720 nM. It also gave a TGI (ACHN renal) of 4360 nM, a GI50 (CCRF-CEM leukemia) of 830 nM and a TGI (CCRF-CEM leukemia) of 8030 nM. It also gave a GI50 (COLO 205 colon) of 2850 nM, a TGI (COLO 205 colon) of 12800 nM and a GI50 (DU-145 prostate) of 1180 nM. For the same compound, the TGI (DU-145 prostate) was 2900 nM, the GI50 (EKVX NSCLC) was 1720 nM and the TGI (EKVX NSCLC) was 5660 nM. For the same compound, the GI50 (HCC-2998 colon) was 2300 nM, the TGI (HCC-2998 colon) was 4970 nM and the GI50 (HCT-116 colon) was 423 nM. For the same compound, the TGI (HCT-116 colon) was 1530 nM, the GI50 (HOP-92 NSCLC) was 1660 nM and the TGI (HOP-92 NSCLC) was 5100 nM. The GI50 (HS 578T breast) was 2340 nM, the TGI (HS 578T breast) was 6330 nM and the GI50 (K-562 leukemia) was 378 nM. It also gave a TGI (K-562 leukemia) of 3440 nM, a GI50 (LOX IMVI melanoma) of 1280 nM and a TGI (LOX IMVI melanoma) of 2710 nM. It also gave a GI50 (MALME-3M melanoma) of 1760 nM, a TGI (MALME-3M melanoma) of 3540 nM and a GI50 (MCF7 breast) of 1590 nM. The TGI (MCF7 breast) was 4580 nM, the GI50 (MDA-MB-231 breast) was 457 nM and the TGI (MDA-MB-231 breast) was 3860 nM. The GI50 (MDA-MB-435) was 1690 nM, the TGI (MDA-MB-435) was 3290 nM and the GI50 (MOLT-4 leukemia) was 527 nM. It also gave a TGI (MOLT-4 leukemia) of 3020 nM, a GI50 (NCI-H23 lung) of 1630 nM and a TGI (NCI-H23 lung) of 4040 nM. The GI50 (NCI-H460 lung) was 1780 nM, the TGI (NCI-H460 lung) was 3390 nM and the GI50 (NCI/ADR-RES ovarian) was 2110 nM. For the same compound, the TGI (NCI/ADR-RES ovarian) was 7560 nM, the GI50 (OVCAR-3 ovarian) was 832 nM and the TGI (OVCAR-3 ovarian) was 2400 nM. It also gave a GI50 (OVCAR-4 ovarian) of 1170 nM, a TGI (OVCAR-4 ovarian) of 2430 nM and a GI50 (OVCAR-5 ovarian) of 2870 nM. For the same compound, the TGI (OVCAR-5 ovarian) was over 100000 nM, the GI50 (RPMI-8226 leukemia) was 2320 nM and the TGI (RPMI-8226 leukemia) was 6680 nM. The GI50 (SF-268 CNS) was 2240 nM, the TGI (SF-268 CNS) was 5470 nM and the GI50 (SF-295 CNS) was 1670 nM. For the same compound, the TGI (SF-295 CNS) was 3550 nM, the GI50 (SF-539 CNS) was 1670 nM and the TGI (SF-539 CNS) was 3310 nM. For the same compound, the GI50 (SK-MEL-5 melanoma) was 1870 nM, the TGI (SK-MEL-5 melanoma) was 3810 nM and the GI50 (SK-OV-3 ovarian) was 2150 nM. The TGI (SK-OV-3 ovarian) was 5360 nM, the GI50 (SN12C renal) was 1800 nM and the TGI (SN12C renal) was 3630 nM. For the same compound, the GI50 (SNB-19 CNS) was 2310 nM, the TGI (SNB-19 CNS) was 7300 nM and the GI50 (SNB-75 CNS) was 1420 nM. The TGI (SNB-75 CNS) was 2840 nM, the GI50 (SW-620 colon) was 1560 nM and the TGI (SW-620 colon) was 3440 nM. The GI50 (T-47D breast) was 1480 nM, the TGI (T-47D breast) was 5260 nM and the GI50 (TK-10 renal) was 2910 nM. It also gave a TGI (TK-10 renal) of 5970 nM, a GI50 (U251 CNS) of 1240 nM and a TGI (U251 CNS) of 2700 nM. The GI50 (UACC-257 melanoma) was 3040 nM, the TGI (UACC-257 melanoma) was 7980 nM and the GI50 (UACC-62 melanoma) was 1760 nM. It also gave a TGI (UACC-62 melanoma) of 3790 nM.
